Source: ChEMBL document CHEMBL5241126, “Design and synthesis of 6-methylpyridin-2-one derivatives as novel and potent GluN2A positive allosteric modulators for the treatment of cognitive impairment” (Bioorg Med Chem, 2023)

Columns and labels:
[1] = 1-Octanol/aqueous buffer partition coefficient, logD of the compound at pH 7.4 by chromatographic method based UV-visible detector; format: physicochemical
[2] = target: Glutamate receptor ionotropic, NMDA 2A (Homo sapiens, UniProt Q05586+Q12879); assay: Positive allosteric modulator activity at GluN2A NMDA receptor (unknown origin) expressed in CHO cells co-expressing GluN1a in the presence of L-glutamate and glycine by Ca2+ influx assay; format: cell-based
Sequence of Glutamate receptor ionotropic, NMDA 2A (Q12879 whole entry, the tested form may be a part, one chain of several): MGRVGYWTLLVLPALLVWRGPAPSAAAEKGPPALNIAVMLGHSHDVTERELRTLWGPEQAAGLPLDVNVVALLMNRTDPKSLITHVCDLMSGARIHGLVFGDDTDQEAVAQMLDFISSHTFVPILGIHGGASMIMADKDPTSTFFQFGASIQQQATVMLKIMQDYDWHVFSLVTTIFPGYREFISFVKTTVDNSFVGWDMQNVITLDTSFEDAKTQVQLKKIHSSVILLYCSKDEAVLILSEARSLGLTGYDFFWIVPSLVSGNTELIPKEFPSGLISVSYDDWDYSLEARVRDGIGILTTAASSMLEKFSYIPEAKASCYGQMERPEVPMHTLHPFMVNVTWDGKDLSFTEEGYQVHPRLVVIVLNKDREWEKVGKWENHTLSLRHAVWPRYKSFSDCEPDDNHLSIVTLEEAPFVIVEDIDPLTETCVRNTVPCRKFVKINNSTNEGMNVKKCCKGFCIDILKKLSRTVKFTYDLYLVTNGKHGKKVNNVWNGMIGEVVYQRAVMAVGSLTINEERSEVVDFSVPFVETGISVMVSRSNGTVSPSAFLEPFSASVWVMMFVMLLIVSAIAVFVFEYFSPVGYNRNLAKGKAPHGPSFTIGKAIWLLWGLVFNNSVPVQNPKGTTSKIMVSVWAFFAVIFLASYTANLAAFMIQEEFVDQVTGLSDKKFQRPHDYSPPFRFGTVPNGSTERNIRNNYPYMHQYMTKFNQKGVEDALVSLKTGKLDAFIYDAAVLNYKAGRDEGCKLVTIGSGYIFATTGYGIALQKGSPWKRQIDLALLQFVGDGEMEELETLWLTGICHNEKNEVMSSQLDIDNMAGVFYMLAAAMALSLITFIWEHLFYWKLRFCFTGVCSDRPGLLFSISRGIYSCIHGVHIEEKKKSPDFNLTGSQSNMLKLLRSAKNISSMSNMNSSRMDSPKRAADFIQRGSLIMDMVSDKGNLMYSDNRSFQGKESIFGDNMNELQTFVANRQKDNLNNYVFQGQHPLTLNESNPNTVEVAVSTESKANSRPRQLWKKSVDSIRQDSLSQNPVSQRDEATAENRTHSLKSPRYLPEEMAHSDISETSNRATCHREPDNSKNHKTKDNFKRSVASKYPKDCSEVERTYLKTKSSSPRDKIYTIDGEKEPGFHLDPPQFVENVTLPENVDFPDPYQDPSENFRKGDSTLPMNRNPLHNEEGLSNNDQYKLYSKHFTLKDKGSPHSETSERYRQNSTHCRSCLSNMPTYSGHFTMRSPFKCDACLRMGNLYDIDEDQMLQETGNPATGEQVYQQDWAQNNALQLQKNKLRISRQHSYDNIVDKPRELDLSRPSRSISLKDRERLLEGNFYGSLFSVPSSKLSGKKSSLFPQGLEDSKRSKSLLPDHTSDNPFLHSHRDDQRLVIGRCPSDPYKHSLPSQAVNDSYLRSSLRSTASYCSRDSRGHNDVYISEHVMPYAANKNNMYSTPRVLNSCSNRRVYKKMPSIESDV

Glutamate receptor 2 = Glutamate receptor 2 (Homo sapiens, UniProt P42262); assay: Displacement of [3H]-HBT1 from His-tagged GluA2-AMPA receptor LBD (unknown origin) in presence of glutamate by scintillation proximity assay
Sequence of Glutamate receptor 2 (P42262 whole entry, the tested form may be a part): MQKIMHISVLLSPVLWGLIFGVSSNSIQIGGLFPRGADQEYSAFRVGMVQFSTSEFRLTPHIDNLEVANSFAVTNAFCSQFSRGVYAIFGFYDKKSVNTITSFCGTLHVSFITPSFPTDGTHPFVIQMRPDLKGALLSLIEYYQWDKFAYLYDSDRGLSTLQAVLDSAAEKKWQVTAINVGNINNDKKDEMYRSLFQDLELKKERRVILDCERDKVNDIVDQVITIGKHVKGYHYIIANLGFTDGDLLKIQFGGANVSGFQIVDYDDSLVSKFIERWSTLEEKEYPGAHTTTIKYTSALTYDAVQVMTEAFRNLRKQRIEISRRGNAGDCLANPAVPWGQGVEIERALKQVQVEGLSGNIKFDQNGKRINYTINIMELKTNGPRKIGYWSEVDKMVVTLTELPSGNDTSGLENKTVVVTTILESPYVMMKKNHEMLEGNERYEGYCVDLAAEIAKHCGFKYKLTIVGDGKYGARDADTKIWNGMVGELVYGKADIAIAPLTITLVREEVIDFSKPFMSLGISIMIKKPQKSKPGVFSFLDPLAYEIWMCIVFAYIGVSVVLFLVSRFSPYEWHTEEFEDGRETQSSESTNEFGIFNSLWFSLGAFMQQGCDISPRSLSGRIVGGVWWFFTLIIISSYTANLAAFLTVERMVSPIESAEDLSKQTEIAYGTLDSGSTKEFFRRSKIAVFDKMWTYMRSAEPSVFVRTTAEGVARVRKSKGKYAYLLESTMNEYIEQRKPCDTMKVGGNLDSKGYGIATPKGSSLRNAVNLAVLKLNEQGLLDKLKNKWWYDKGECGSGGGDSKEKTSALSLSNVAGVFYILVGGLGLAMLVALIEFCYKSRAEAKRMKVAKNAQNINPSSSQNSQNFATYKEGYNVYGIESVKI

[3] = Metabolic stability in human liver microsomes assessed as clearance at 1 uM incubated for 15 to 30 mins in the presence of NADPH generating system by LC-MS/MS analysis; format: ADME, Microsome; details: time 15-30 min, read-out: CLH
[4] = Metabolic stability in rat liver microsomes assessed as clearance at 1 uM incubated for 15 to 30 mins in the presence of NADPH generating system by LC-MS/MS analysis; format: ADME, Microsome; details: time 15-30 min, read-out: CLH
[5] = target: Glutamate receptor ionotropic, NMDA 2B (Homo sapiens, UniProt Q05586+Q13224); assay: Positive allosteric modulator activity at GluN2B NMDA receptor (unknown origin) expressed in CHO cells co-expressing GluN1a in the presence of L-glutamate and glycine by Ca2+ influx assay; format: cell-based
[6] = target: Glutamate receptor ionotropic, NMDA 2C (Homo sapiens, UniProt Q05586+Q14957); assay: Positive allosteric modulator activity at GluN2C NMDA receptor (unknown origin) expressed in CHO cells co-expressing GluN1a in the presence of L-glutamate and glycine by Ca2+ influx assay; format: cell-based
Sequence of Glutamate receptor ionotropic, NMDA 2C (Q14957 whole entry, one chain of several): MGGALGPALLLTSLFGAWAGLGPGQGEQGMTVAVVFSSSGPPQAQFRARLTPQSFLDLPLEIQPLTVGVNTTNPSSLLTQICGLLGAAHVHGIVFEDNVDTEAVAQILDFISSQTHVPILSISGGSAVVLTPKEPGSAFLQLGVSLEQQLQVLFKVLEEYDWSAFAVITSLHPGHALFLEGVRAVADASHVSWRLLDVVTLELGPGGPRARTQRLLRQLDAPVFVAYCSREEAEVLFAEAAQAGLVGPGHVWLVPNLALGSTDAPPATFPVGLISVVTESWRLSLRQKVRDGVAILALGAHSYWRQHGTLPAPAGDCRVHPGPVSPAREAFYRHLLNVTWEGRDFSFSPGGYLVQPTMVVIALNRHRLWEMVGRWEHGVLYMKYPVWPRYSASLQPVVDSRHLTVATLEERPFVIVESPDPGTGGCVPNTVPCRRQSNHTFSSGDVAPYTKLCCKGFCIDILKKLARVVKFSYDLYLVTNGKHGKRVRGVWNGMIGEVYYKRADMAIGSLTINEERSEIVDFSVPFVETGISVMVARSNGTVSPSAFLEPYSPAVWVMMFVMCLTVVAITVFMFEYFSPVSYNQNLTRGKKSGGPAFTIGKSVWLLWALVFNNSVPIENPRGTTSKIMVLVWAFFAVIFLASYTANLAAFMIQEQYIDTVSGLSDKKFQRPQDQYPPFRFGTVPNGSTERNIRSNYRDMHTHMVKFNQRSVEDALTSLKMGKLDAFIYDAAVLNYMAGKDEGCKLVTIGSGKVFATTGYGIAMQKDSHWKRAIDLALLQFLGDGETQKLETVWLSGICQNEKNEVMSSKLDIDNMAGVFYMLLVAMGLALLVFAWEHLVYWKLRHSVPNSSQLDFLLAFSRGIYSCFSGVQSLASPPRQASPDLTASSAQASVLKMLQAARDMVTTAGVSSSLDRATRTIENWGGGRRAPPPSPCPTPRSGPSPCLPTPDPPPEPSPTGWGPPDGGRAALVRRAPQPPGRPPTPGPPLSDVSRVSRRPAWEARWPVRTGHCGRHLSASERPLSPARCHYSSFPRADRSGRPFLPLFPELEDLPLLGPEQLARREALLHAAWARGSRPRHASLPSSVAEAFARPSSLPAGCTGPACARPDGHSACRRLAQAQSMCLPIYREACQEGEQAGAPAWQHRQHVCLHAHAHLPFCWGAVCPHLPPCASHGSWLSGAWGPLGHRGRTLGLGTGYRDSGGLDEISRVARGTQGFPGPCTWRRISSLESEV

[7] = target: Glutamate receptor ionotropic, NMDA 2D (Homo sapiens, UniProt O15399+Q05586); assay: Positive allosteric modulator activity at GluN2D NMDA receptor (unknown origin) expressed in CHO cells co-expressing GluN1a in the presence of L-glutamate and glycine by Ca2+ influx assay; format: cell-based
Sequence of Glutamate receptor ionotropic, NMDA 2D (O15399 whole entry, one chain of several): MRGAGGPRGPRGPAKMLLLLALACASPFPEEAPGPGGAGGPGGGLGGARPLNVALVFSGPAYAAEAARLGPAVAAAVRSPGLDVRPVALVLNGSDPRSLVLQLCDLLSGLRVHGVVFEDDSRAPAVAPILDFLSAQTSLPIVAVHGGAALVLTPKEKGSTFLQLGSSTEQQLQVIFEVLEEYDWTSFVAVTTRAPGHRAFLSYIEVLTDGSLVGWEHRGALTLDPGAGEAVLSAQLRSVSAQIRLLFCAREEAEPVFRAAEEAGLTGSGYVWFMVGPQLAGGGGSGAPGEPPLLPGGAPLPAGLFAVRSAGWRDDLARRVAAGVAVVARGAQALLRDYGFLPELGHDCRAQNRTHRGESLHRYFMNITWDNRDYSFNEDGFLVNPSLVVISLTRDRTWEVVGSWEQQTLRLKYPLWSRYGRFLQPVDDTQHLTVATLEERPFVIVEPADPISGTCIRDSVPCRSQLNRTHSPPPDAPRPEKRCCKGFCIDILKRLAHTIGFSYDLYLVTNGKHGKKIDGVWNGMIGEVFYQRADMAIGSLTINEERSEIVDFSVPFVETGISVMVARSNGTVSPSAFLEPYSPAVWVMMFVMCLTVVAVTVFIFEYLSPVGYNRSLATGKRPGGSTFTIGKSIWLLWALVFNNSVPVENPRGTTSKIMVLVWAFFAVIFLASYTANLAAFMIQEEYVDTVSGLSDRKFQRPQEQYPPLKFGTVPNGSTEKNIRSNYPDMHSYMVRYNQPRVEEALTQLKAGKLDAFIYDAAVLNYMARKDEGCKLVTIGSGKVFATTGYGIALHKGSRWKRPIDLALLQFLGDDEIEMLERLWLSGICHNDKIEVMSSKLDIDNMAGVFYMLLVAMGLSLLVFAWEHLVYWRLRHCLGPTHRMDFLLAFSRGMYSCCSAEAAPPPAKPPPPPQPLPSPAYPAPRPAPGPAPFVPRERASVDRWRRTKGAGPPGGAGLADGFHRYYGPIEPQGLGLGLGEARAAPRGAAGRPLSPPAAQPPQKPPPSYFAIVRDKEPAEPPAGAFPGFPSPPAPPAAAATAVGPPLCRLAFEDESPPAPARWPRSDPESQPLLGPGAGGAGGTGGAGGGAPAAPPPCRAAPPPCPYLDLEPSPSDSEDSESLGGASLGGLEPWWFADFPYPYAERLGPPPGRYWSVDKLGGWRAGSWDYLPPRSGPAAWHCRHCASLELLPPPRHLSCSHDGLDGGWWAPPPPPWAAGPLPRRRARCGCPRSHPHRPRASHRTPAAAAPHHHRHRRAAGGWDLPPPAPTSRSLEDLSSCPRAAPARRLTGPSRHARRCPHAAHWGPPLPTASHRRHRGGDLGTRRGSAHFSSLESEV

[8] = Drug concentration in Sprague-Dawley rat plasma at 10 mg/kg, po measured after 0.5 hrs by LC-MS/MS analysis; format: ADME, organism-based
[9] = Drug concentration in Sprague-Dawley rat brain at 10 mg/kg, po measured after 0.5 hrs by LC-MS/MS analysis; format: ADME, organism-based; details: read-out: Ct
[10] = Drug concentration in Sprague-Dawley rat plasma at 10 mg/kg, po measured after 1 hrs by LC-MS/MS analysis; format: ADME, organism-based
[11] = Drug concentration in Sprague-Dawley rat brain at 10 mg/kg, po measured after 1 hrs by LC-MS/MS analysis; format: ADME, organism-based; details: read-out: Ct
[12] = Drug concentration in Sprague-Dawley rat plasma at 10 mg/kg, po measured after 2 hrs by LC-MS/MS analysis; format: ADME, organism-based
[13] = Drug concentration in Sprague-Dawley rat brain at 10 mg/kg, po measured after 2 hrs by LC-MS/MS analysis; format: ADME, organism-based; details: read-out: Ct

Row | SMILES | chromatographic logD [1] | EC50 [2] | IC50 (Glutamate receptor 2) | microsomal CLint at 1 µM [3] | microsomal CLint at 1 µM [4] | also measured
1 | CCc1cc(CN(CC)c2ccc(F)cc2)cc(=O)n1CC1CC1 | 3.6 | 13 µM | – | – | – | –
2 | Cc1cccc(Cc2cc(C)n(C[C@H]3C[C@@H]3C#N)c(=O)c2)c1 | 2.4 | > 30 µM | > 30 µM | 15 µL/min/mg | 26 µL/min/mg | –
3 | CCN(Cc1cc(C)n(CC2CCC2)c(=O)c1)c1ccc(F)cc1 | 3.6 | 23 µM | 1.2 µM | – | – | –
4 | Cc1cc(Cc2cccc(Br)c2)cc(=O)n1C[C@H]1C[C@@H]1C#N | 2.5 | – | > 30 µM | 24 µL/min/mg | 72 µL/min/mg | –
5 | Cc1cc(Cn2nc(C(F)F)cc2Cl)cc(=O)n1C[C@H]1C[C@@H]1C#N | 1.4 | – | > 30 µM | – | – | –
6 | CCN(Cc1cc(C)n(C[C@@H]2C[C@H]2C#N)c(=O)c1)c1ccc(F)cc1 (racemic) | – | – | 10 µM | – | – | –
7 | CCN(Cc1cc(C)n(CCCC#N)c(=O)c1)c1ccc(F)cc1 | 2.4 | > 30 µM | 4.3 µM | – | – | –
8 | Cc1cc(Cn2nc(Cl)cc2Cl)cc(=O)n1C[C@H]1C[C@@H]1C#N | 1.6 | – | > 30 µM | 12 µL/min/mg | 22 µL/min/mg | –
9 | Cc1cc(Cn2nc(Br)cc2Cl)cc(=O)n1C[C@H]1C[C@@H]1C#N | 1.6 | – | > 30 µM | 28 µL/min/mg | 14 µL/min/mg | EC50 [5]: > 30 µM; EC50 [6]: 1.9 µM; EC50 [7]: 5.1 µM; concentration at 0.5 h [8]: 0.926 µg/mL; concentration at 0.5 h [9]: 262 ng/g; concentration at 1 h [10]: 0.59 µg/mL; concentration at 1 h [11]: 111 ng/g; concentration at 2 h [12]: 0.362 µg/mL; concentration at 2 h [13]: 71 ng/g
10 | CCN(Cc1cc(C)n(CC2(C#N)CC2)c(=O)c1)c1ccc(F)cc1 | 2.5 | > 30 µM | 2.3 µM | – | – | –
11 | Cc1cc(Cc2cccc(Cl)c2)cc(=O)n1C[C@H]1C[C@@H]1C#N | 2.3 | – | > 30 µM | – | 75 µL/min/mg | –
12 | CCN(Cc1cc(C)n(CC2CC2)c(=O)c1)c1ccc(F)cc1 | 3.2 | – | 9.9 µM | – | – | –
13 | CCN(Cc1ccn(CC2CC2)c(=O)c1)c1ccc(F)cc1 | 2.8 | – | 0.75 µM | – | – | –
14 | CCN(Cc1cc(=O)n(CC2CC2)c(C)n1)c1ccc(F)cc1 | 2.9 | 13 µM | 2.3 µM | – | – | –
15 | CCN(Cc1cc(C)n(C[C@H]2C[C@@H]2C#N)c(=O)c1)c1ccc(F)cc1 | 2.4 | – | 11 µM | 48 µL/min/mg | > 768 µL/min/mg | –
16 | CCN(Cc1cc(C)n(Cc2ccccc2)c(=O)c1)c1ccc(F)cc1 | 3.5 | > 30 µM | 5.5 µM | – | – | –
17 | CCCc1cc(CN(CC)c2ccc(F)cc2)cc(=O)n1CC1CC1 | 4 | 12 µM | > 30 µM | – | – | –
18 | Cc1cc(Cn2nc(C(F)(F)F)cc2Cl)cc(=O)n1C[C@H]1C[C@@H]1C#N | 1.8 | – | 21 µM | 2 µL/min/mg | 22 µL/min/mg | –
19 | CCN(Cc1cc(C)n(C[C@@H]2C[C@H]2C#N)c(=O)c1)c1ccc(F)cc1 | 2.4 | – | 16 µM | – | – | –
